Reference: article PMC8856595 (2021)
Each block holds one compound with its values, some of them ahead of it.

Columns and labels:
Experiment in all cases: ITC
[1] = system: aptananozyme XI: 3'-amino-TBA (7) on Cu2+ C-dots (DNA, aptamer) TGTGGTGTGTGAGTGCGGTGCCC; details: 100 mM NaCl, 5 mM MgCl2, 50 mM phosphate, pH 7.2, Figure S16 legend: 50 mM NaCl, 10 mM MgCl2
[2] = system: aptananozyme XII: 5'-amino-(TGTA)-TBA (8) on Cu2+ C-dots (DNA, aptamer) TGTATGTGGTGTGTGAGTGCGGTGCCC; details: 100 mM NaCl, 5 mM MgCl2, 50 mM phosphate, pH 7.2, Figure S16 legend: 50 mM NaCl, 10 mM MgCl2
[3] = system: aptananozyme X: 5'-amino-TBA (6) on Cu2+ C-dots (DNA, aptamer) TGTGGTGTGTGAGTGCGGTGCCC; details: 100 mM NaCl, 5 mM MgCl2, 50 mM phosphate, pH 7.2, Figure S16 legend: 50 mM NaCl, 10 mM MgCl2
[4] = system: aptananozyme XIII: 5'-amino-(TGTA)2-TBA (9) on Cu2+ C-dots (DNA, aptamer) TGTATGTATGTGGTGTGTGAGTGCGGTGCCC; details: 100 mM NaCl, 5 mM MgCl2, 50 mM phosphate, pH 7.2, Figure S16 legend: 50 mM NaCl, 10 mM MgCl2
[5] = system: aptananozyme XIV: 5'-amino-(TGTA)3-TBA (10) on Cu2+ C-dots (DNA, aptamer) TGTATGTATGTATGTGGTGTGTGAGTGCGGTGCCC; details: 100 mM NaCl, 5 mM MgCl2, 50 mM phosphate, pH 7.2, Figure S16 legend: 50 mM NaCl, 10 mM MgCl2
[6] = system: aptananozyme IV: 5'-amino-(TGTA)2-DBA (4) on Cu2+ C-dots (DNA, aptamer) TGTATGTACGACGCCAGTTTGAAGGTTCGTTCGCAGGTGTGGAGTGACGTCG; details: 100 mM NaCl, 5 mM MgCl2, 5 mM MES, pH 5.5
[7] = system: aptananozyme II: 3'-amino-DBA (2) on Cu2+ C-dots (DNA, aptamer) CGACGCCAGTTTGAAGGTTCGTTCGCAGGTGTGGAGTGACGTCG; details: 100 mM NaCl, 5 mM MgCl2, 5 mM MES, pH 5.5
[8] = system: aptananozyme III: 5'-amino-(TGTA)-DBA (3) on Cu2+ C-dots (DNA, aptamer) TGTACGACGCCAGTTTGAAGGTTCGTTCGCAGGTGTGGAGTGACGTCG; details: 100 mM NaCl, 5 mM MgCl2, 5 mM MES, pH 5.5
[9] = system: aptananozyme V: 5'-amino-(TGTA)3-DBA (5) on Cu2+ C-dots (DNA, aptamer) TGTATGTATGTACGACGCCAGTTTGAAGGTTCGTTCGCAGGTGTGGAGTGACGTCG; details: 100 mM NaCl, 5 mM MgCl2, 5 mM MES, pH 5.5
[10] = system: aptananozyme I: 5'-amino-DBA (1) on Cu2+ C-dots (DNA, aptamer) CGACGCCAGTTTGAAGGTTCGTTCGCAGGTGTGGAGTGACGTCG; details: 100 mM NaCl, 5 mM MgCl2, 5 mM MES, pH 5.5; for Kd: printed as 'the aptamer', methods: aptananozyme

Kd [1]: 1240 ± 50 nM | binding [2]: yes | Kd [3]: 830 ± 10 nM | binding [4]: yes | Kd [5]: 1400 ± 100 nM
SMILES: NC(=O)[C@@H](N)Cc1ccc(O)cc1

binding [6]: yes | binding [7]: yes | binding [8]: yes | Kd [9]: 3900 ± 200 nM | binding ([10]; aptamer on Cu2+ C-dots): yes
SMILES: NCCc1ccc(O)c(O)c1

Kd [10]: 1700 ± 400 nM
SMILES: N[C@@H](Cc1ccc(O)c(O)c1)C(=O)O

Kd [10]: 6600 ± 1000 nM
SMILES: N[C@H](Cc1ccc(O)c(O)c1)C(=O)O
